Structures can show the parent of a compound that is named as a salt.

The test system of test [1] is L6-myotubes. The test can be described thus: Measurement of intracellular cAMP levels in differentiated L6 cells (alpha screen cAMP kit), compared to isoproterenol. Format: cell-based. The note with it: Rattus norvegicus, L6, 0.25 h, agonist 1×10^−5 M, 15 min, read-out: Biological example 2: intracellular cAMP levels, activity compared to that of isoproterenol. On the procedure: (§1) L6-myoblasts were grown in Dulbecco's Modified Eagle's Medium (DMEM) containing 1 g/L glucose supplemented with 10% fetal bovine serum, 2 mM L-Glutamine, 50 U/mL penicillin, 50 μg/mL streptomycin and 10 mM HEPES. Cells were plated at 1×10^5 cells per mL in 24-well plates. After reaching 90% confluence the cells were grown in medium containing 2% FBS for 7 days where upon cells differentiated into myotubes.
Differentiated cells were serum-starved overnight and stimulated with an agonist, final concentration 1×10^−5 M, for 15 min in stimulation buffer (HBSS supplemented with 1% BSA, 5 mM HEPES and 1 mM IBMX, pH 7.4). The medium was aspirated and 100 μL of 95% EtOH was added to each well of the 24-well plate and cells were kept at −20° C. overnight. The EtOH was allowed to evaporate and 500 μL of lysis buffer (1% BSA, 5 mM HEPES and 0.3% Tween-20, pH 7.4) was added to each well. The plate was kept at −80° C. for 30 min and then at −20° C. until the day of detection when the samples were thawed. Intracellular cAMP levels were detected using an alpha screen cAMP kit (6760635D from Perkin Elmer). The activity for each compound is compared to that of isoproterenol.
Background: Cyclic AMP is a second messenger, typically raised through Gs and lowered through Gi signalling.

Test [2] has as its system L6-myotubes. The test can be described thus: Glucose uptake in differentiated L6-myotubes (3H-2-deoxyglucose), compared to isoproterenol. Format: cell-based. The following applies: agonist 1×10^−5 M, 50 nM 3H-2-deoxyglucose; for Emax at 10 µM: read-out: Biological example 1: glucose uptake, activity compared to that of isoproterenol. How it is done:
as §1
Differentiated L6-myotubes were serum-starved overnight in medium containing 0.5% fatty-acid free BSA and stimulated with an agonist, with a final concentration of 1×10^−5 M. After 1 h 40 min the cells were washed with warm glucose free medium or PBS twice and another portion of agonist was added to the glucose free medium. After 20 min the cells were exposed to 50 nM ^3H-2-deoxyglucose for 10 min before washed with ice cold glucose free medium or PBS three times and lysed with 0.2 M NaOH, 400 μL/well, for 1 h at 60° C. The cell lysate was mixed with 4 mL scintillation buffer (Emulsifier Safe, Perkin Elmer) and the radioactivity was detected in a β-counter (Tri-Carb 4810TR, Perkin Elmer). The activity for each compound is compared to that of isoproterenol.

As to `COC1CCC(CCC(C)(C)NC[C@H](O)c2cncc(F)c2)CC1` (stereo partly drawn) [Example 22, (R)-1-(5-Fluoropyridin-3-yl)-2-((4-((1r,4S)-4-methoxycyclohexyl)-2-methylbutan-2-yl)amino)ethan-1-ol dihydrochloride], the figures for the Emax at 10 µM with L6-myotubes [1] and in the test with L6-myotubes [2] were under 25% and 25 to 50%, respectively.

`CO[C@H]1CC[C@@H](CCC(C)(C)NC[C@H](O)c2cccc(F)c2)CC1.Cl` [Example 23, (R)-1-(3-Fluorophenyl)-2-((4-((1s,4R)-4-methoxycyclohexyl)-2-methylbutan-2-yl)amino)ethan-1-ol hydrochloride]: in the test with L6-myotubes [1], the Emax at 10 µM fell in the range of 25 to 50%. The “Biological example 1: glucose uptake, activity compared to that of isoproterenol” value in the test on L6-myotubes [2] was “+ + +”.

As for `CO[C@H]1CC[C@@H](CCC(C)(C)NC[C@H](O)c2cncc(F)c2)CC1` [Example 24, (R)-1-(5-Fluoropyridin-3-yl)-2-((4-((1s,4R)-4-methoxycyclohexyl)-2-methylbutan-2-yl)amino)ethan-1-ol dihydrochloride], the Emax at 10 µM in the test on L6-myotubes [1] is under 25%. Moreover, the “Biological example 1: glucose uptake, activity compared to that of isoproterenol” value in the test with L6-myotubes [2] is “+ + +”.

`O[C@@H](CNC[C@H]1CC[C@@H](OCc2ccccc2)CC1)c1cccc(F)c1` [Example 25, (R)-2-((((1s,4S)-4-(Benzyloxy)cyclohexyl)methyl)amino)-1-(3-fluoro-phenyl)ethan-1-ol]: the figures for the Emax at 10 µM with L6-myotubes [1] and in the test with L6-myotubes [2] were under 25% and 25 to 50%, respectively.

As to `O[C@@H](CNC[C@H]1CC[C@@H](O)CC1)c1cccc(F)c1` [Example 26, (1S,4s)-4-((((R)-2-(3-Fluorophenyl)-2-hydroxyethyl)amino)methyl)-cyclohexan-1-ol], the Emax at 10 µM in the test with L6-myotubes [1] was under 25%; in the test on L6-myotubes [2], 25 to 50%.

Turning to `O[C@@H](CNC[C@H]1CC[C@@H](OCc2ccccc2)CC1)c1cncc(F)c1` [Example 27, (R)-2-((((1s,4S)-4-(Benzyloxy)cyclohexyl)methyl)amino)-1-(5-fluoropyridin-3-yl)ethan-1-ol], in the test with L6-myotubes [1], the Emax at 10 µM is under 25%. In the test on L6-myotubes [2], the “Biological example 1: glucose uptake, activity compared to that of isoproterenol” value is recorded as “+ + +”.

For `O[C@@H](CNC[C@H]1CC[C@@H](O)CC1)c1cncc(F)c1` [Example 28, (1S,4s)-4-((((R)-2-(5-Fluoropyridin-3-yl)-2-hydroxyethyl)amino)-methyl)cyclohexan-1-ol], the Emax at 10 µM with L6-myotubes [1] was under 25%; with L6-myotubes [2] it was 25 to 50%.

As to `O[C@@H](CNC[C@H]1CC[C@H](OCc2ccccc2)CC1)c1cccc(F)c1` [Example 29, (R)-2-((((1r,4R)-4-(Benzyloxy)cyclohexyl)methyl)amino)-1-(3-fluoro-phenyl)ethan-1-ol], the Emax at 10 µM is under 25% in the test with L6-myotubes [1] and 25 to 50% with L6-myotubes [2].

As for `O[C@@H](CNC[C@H]1CC[C@H](O)CC1)c1cccc(F)c1` [Example 30, (1R,4r)-4-((((R)-2-(3-Fluorophenyl)-2-hydroxyethyl)amino)methyl)-cyclohexan-1-ol], the Emax at 10 µM with L6-myotubes [1] is under 25%; in the test on L6-myotubes [2], 25 to 50%.

Consider `O[C@@H](CNC[C@H]1CC[C@H](OCc2ccccc2)CC1)c1cncc(F)c1` [Example 31, (R)-2-((((1r,4R)-4-(Benzyloxy)cyclohexyl)methyl)amino)-1-(5-fluoropyridin-3-yl)ethan-1-ol], for which the Emax at 10 µM was under 25% in the test on L6-myotubes [1] and 25 to 50% in the test with L6-myotubes [2].

Consider `O[C@@H](CNC[C@H]1CC[C@H](O)CC1)c1cncc(F)c1` [Example 32, (1R,4r)-4-((((R)-2-(5-Fluoropyridin-3-yl)-2-hydroxyethyl)amino)-methyl)cyclohexan-1-ol], for which the Emax at 10 µM in the test with L6-myotubes [1] and in the test on L6-myotubes [2] was under 25% each time.

`CC(C)(NC[C@H](O)c1cccc(F)c1)[C@H]1CC[C@@H](OCc2ccccc2)CC1` [Example 33, (R)-2-((2-((1s,4S)-4-(Benzyloxy)cyclohexyl)propan-2-yl)amino)-1-(3-fluorophenyl)ethan-1-ol]: the Emax at 10 µM in the test with L6-myotubes [1] was under 25%. In addition, the “Biological example 1: glucose uptake, activity compared to that of isoproterenol” value in the test on L6-myotubes [2] is reported as “+ +”.

Take `CC(C)(NC[C@H](O)c1cccc(F)c1)[C@H]1CC[C@@H](O)CC1` [Example 34, (1S,4s)-4-(2-(((R)-2-(3-Fluorophenyl)-2-hydroxyethyl)amino)propan-2-yl)cyclohexan-1-ol]: the Emax at 10 µM in the test with L6-myotubes [1] was under 25%. Also, the “Biological example 1: glucose uptake, activity compared to that of isoproterenol” value with L6-myotubes [2] is recorded as “+ +”.

As to `CC(C)(NC[C@H](O)c1cncc(F)c1)[C@H]1CC[C@@H](OCc2ccccc2)CC1` [Example 35, (R)-2-((2-((1s,4S)-4-(Benzyloxy)cyclohexyl)propan-2-yl)amino)-1-(5-fluoropyridin-3-yl)ethan-1-ol], the Emax at 10 µM with L6-myotubes [1] is under 25%. Moreover, the “Biological example 1: glucose uptake, activity compared to that of isoproterenol” value in the test with L6-myotubes [2] was “+ +”.

Regarding `CC(C)(NC[C@H](O)c1cncc(F)c1)[C@H]1CC[C@@H](O)CC1` [Example 36, (1S,4s)-4-(2-(((R)-2-(5-Fluoropyridin-3-yl)-2-hydroxyethyl)amino)propan-2-yl)cyclohexan-1-ol], the Emax at 10 µM in the test with L6-myotubes [1] was under 25%; with L6-myotubes [2] it was 25 to 50%.

For `CC(C)(NC[C@H](O)c1cccc(F)c1)[C@H]1CC[C@H](OCc2ccccc2)CC1` [Example 37, (R)-2-((2-((1r,4R)-4-(Benzyloxy)cyclohexyl)propan-2-yl)amino)-1-(3-fluoro-phenyl)ethan-1-ol], the Emax at 10 µM with L6-myotubes [1] was under 25%. Also, the “Biological example 1: glucose uptake, activity compared to that of isoproterenol” value with L6-myotubes [2] is on record as “+ +”.

Turning to `CC(C)(NC[C@H](O)c1cccc(F)c1)[C@H]1CC[C@H](O)CC1` [Example 38, (1R,4r)-4-(2-(((R)-2-(3-Fluorophenyl)-2-hydroxyethyl)amino)propan-2-yl)cyclohexan-1-ol], the Emax at 10 µM in the test on L6-myotubes [1] is under 25%. The “Biological example 1: glucose uptake, activity compared to that of isoproterenol” value in the test on L6-myotubes [2] was “+ +”.

`CC(C)(NC[C@H](O)c1cncc(F)c1)[C@H]1CC[C@H](OCc2ccccc2)CC1` [Example 39, (R)-2-((2-((1r,4R)-4-(Benzyloxy)cyclohexyl)propan-2-yl)amino)-1-(5-fluoropyridin-3-yl)ethan-1-ol]: the Emax at 10 µM in the test with L6-myotubes [1] is under 25%. Moreover, in the test with L6-myotubes [2], the “Biological example 1: glucose uptake, activity compared to that of isoproterenol” value was “+ +”.

For `CC(C)(NC[C@H](O)c1cncc(F)c1)[C@H]1CC[C@H](O)CC1` [Example 40, (1R,4r)-4-(2-(((R)-2-(5-Fluoropyridin-3-yl)-2-hydroxyethyl)amino)propan-2-yl)cyclohexan-1-ol], the Emax at 10 µM with L6-myotubes [1] was under 25%. Besides, in the test on L6-myotubes [2], the “Biological example 1: glucose uptake, activity compared to that of isoproterenol” value is reported as “+ +”.

Take `O[C@@H](CNCC[C@H]1CC[C@@H](OCc2ccccc2)CC1)c1cccc(F)c1` [Example 41, (R)-2-((2-((1s,4S)-4-(Benzyloxy)cyclohexyl)ethyl)amino)-1-(3-fluoro-phenyl)ethan-1-ol]: the Emax at 10 µM in the test with L6-myotubes [1] was under 25%. In the test with L6-myotubes [2], the “Biological example 1: glucose uptake, activity compared to that of isoproterenol” value was “+ +”.

With `O[C@@H](CNCC[C@H]1CC[C@@H](O)CC1)c1cccc(F)c1` [Example 42, (1S,4s)-4-(2-(((R)-2-(3-Fluorophenyl)-2-hydroxyethyl)amino)ethyl)-cyclohexan-1-ol], the Emax at 10 µM in the test with L6-myotubes [1] is under 25%. In the test with L6-myotubes [2], the “Biological example 1: glucose uptake, activity compared to that of isoproterenol” value was “+ +”.

As to `O[C@@H](CNCC[C@H]1CC[C@@H](O)CC1)c1cncc(F)c1` [Example 44, (1S,4s)-4-(2-(((R)-2-(5-Fluoropyridin-3-yl)-2-hydroxyethyl)amino)-ethyl)cyclohexan-1-ol], the figures for the Emax at 10 µM with L6-myotubes [1] and in the test on L6-myotubes [2] were under 25% and 25 to 50%, respectively.

The record behind these values is US20240390298A1, “CYCLOHEXYL BETA-HYDROXY ALKYL AMINES AND MEDICAL USES THEREOF” (ATROGI AB, priority 2021, published 2024).
